This note sets out measurements from patent publication US8575163B2, “Pyrrolopyridinylpyrimidin-2-ylamine derivatives” (Merck Patent GmbH, priority 2009, dated 2013).

The structures appear in SMILES notation. Some results are limits rather than exact numbers.

The assay concerns the target T1, PDK1 (Homo sapiens, UniProt O15530).
T1 construct: His6 (N)
T1 sequence (O15530 51-556 limits assumed): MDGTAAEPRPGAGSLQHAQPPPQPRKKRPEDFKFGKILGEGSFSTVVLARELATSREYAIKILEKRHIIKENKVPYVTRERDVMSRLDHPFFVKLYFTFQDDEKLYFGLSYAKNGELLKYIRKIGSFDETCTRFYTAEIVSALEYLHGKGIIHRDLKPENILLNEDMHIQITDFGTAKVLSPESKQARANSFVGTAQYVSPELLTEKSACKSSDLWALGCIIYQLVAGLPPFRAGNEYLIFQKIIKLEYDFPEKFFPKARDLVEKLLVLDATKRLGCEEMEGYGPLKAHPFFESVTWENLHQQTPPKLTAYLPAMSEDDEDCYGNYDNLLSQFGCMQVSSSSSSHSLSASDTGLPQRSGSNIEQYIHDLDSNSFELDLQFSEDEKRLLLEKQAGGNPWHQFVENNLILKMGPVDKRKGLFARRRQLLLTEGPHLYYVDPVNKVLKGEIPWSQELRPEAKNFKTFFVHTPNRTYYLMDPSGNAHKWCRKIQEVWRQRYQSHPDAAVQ
Nature of the assay: Test for the inhibition of PDK1 (flashplate, 33P-ATP). It is filed as biochemical. As to conditions: His6-PDK1 3.4 nM, 4 μM ATP, 30° C., 60 min. An outline of the steps:
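His6-PDK1(1-50) (3.4 nM) and a biotinylated peptide substrate (400 nM) were incubated 60 min at 30° C with 4 μM ATP containing ^33P-ATP and test compound. Incorporated radioactivity was counted after subtracting a 100 nM staurosporine blank and expressed as % of control; IC50 derived from these.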
Take `Cn1cc(-c2cnc3[nH]cc(-c4cc(C(C)(O)c5ccncc5)nc(N)n4)c3c2)cn1` (stereo not shown) [A64, 1-{2-amino-6-[5-(1-methyl-1H-pyrazol-4-yl)-1H-pyrrolo[2,3-b]pyridin-3-yl]-pyrimidin-4-yl}-1-pyridin-4-ylethanol]: the 50% inhibitory concentration (IC50) stood at 3.3 nM.
As to `CC(O)(c1ccccc1)c1cc(-c2c[nH]c3ncc(-c4cnn(CCC(=O)N5CCC(O)C5)c4)cc23)nc(N)n1` (stereo not shown) [A65, 3-(4-{3-[2-amino-6-(1-hydroxy-1-phenylethyl)pyrimidin-4-yl]-1H-pyrrolo-[2,3-b]pyridin-5-yl}pyrazol-1-yl)-1-(3-hydroxypyrrolidin-1-yl)propan-1-one], inhibition was half-maximal at 25 nM (IC50).
Then `CC(O)(c1ccccc1)c1cc(-c2c[nH]c3ncc(-c4cnn(CCC(=O)N5CCCCC5)c4)cc23)nc(N)n1` (stereo not shown) [A66, 3-(4-{3-[2-amino-6-(1-hydroxy-1-phenylethyl)pyrimidin-4-yl]-1H-pyrrolo-[2,3-b]pyridin-5-yl}pyrazol-1-yl)-1-piperidin-1-ylpropan-1-one], with 91 nM; and `CC(O)(c1ccccc1)c1cc(-c2c[nH]c3ncc(-c4cnn(CCC(=O)N5CCOCC5)c4)cc23)nc(N)n1` (stereo not shown) [A67, 3-(4-{3-[2-amino-6-(1-hydroxy-1-phenylethyl)pyrimidin-4-yl]-1H-pyrrolo-[2,3-b]pyridin-5-yl}pyrazol-1-yl)-1-morpholin-4-ylpropan-1-one], with 28 nM.
Then `CC(O)(c1ccccc1)c1cc(-c2c[nH]c3ncc(-c4cnn(CCC(=O)N5CCOCC5)c4)cc23)nc(N)n1` (stereo not shown) [A68, 3-(4-{3-[2-amino-6-(1-hydroxy-1-phenylethyl)pyrimidin-4-yl]-1H-pyrrolo-[2,3-b]pyridin-5-yl}pyrazol-1-yl)-1-morpholin-4-ylpropan-1-one], with 74 nM.
Then `COC(=O)CCn1cc(-c2cnc3[nH]cc(-c4cc(C(C)(O)c5ccccc5)nc(N)n4)c3c2)cn1` (stereo not shown) [A70, methyl 3-(4-{3-[2-amino-6-(1-hydroxy-1-phenylethyl)pyrimidin-4-yl]-1H-pyrrolo[2,3-b]pyridin-5-yl}pyrazol-1-yl)propionate], with 48 nM.
In the case of `CC(O)(c1ccccc1)c1cc(-c2c[nH]c3ncc(-c4cnn(CCC(N)=O)c4)cc23)nc(N)n1` (stereo not shown) [A71, 3-(4-{3-[2-amino-6-(1-hydroxy-1-phenylethyl)pyrimidin-4-yl]-1H-pyrrolo-[2,3-b]pyridin-5-yl}pyrazol-1-yl)propionamide], the IC50 worked out at 15 nM. Compared with the last compound, the IC50 is about 3.2-fold lower.
The figure for `COCO[C@@](C)(c1cccc(F)c1)c1cc(-c2c[nH]c3ncc(Br)cc23)nc(N)n1` [A72, 4-(5-bromo-1H-pyrrolo[2,3-b]pyridin-3-yl)-6-[(S)-1-(3-fluorophenyl)-1-methoxymethoxyethyl]pyrimidin-2-ylamine] is 950 nM.
Then `COCO[C@](C)(c1cccc(F)c1)c1cc(-c2c[nH]c3ncc(Br)cc23)nc(N)n1` [A73, 4-(5-bromo-1H-pyrrolo[2,3-b]pyridin-3-yl)-6-[(R)-1-(3-fluorophenyl)-1-methoxymethoxyethyl]pyrimidin-2-ylamine], with over 30000 nM.
On to `COCOC(C)(c1ccccc1)c1cc(-c2c[nH]c3ncc(-c4cnn(CCC(N)=O)c4)cc23)nc(N)n1` (stereo not shown) [A74, 3-(4-{3-[2-amino-6-(1-methoxymethoxy-1-phenylethyl)pyrimidin-4-yl]-1H-pyrrolo[2,3-b]pyridin-5-yl}pyrazol-1-yl)propionamide], for which the IC50 turned out to be 68 nM.
For the compound `CNC(=O)CCn1cc(-c2cnc3[nH]cc(-c4cc(C(C)(OCOC)c5ccccc5)nc(N)n4)c3c2)cn1` (stereo not shown) [A75, 3-(4-{3-[2-amino-6-(1-methoxymethoxy-1-phenylethyl)pyrimidin-4-yl]-1H-pyrrolo[2,3-b]pyridin-5-yl}pyrazol-1-yl)-N-methylpropionamide], the IC50 worked out at 79 nM.
Then `CCOC(C)(c1ccccc1)c1cc(-c2c[nH]c3ncc(-c4cnn(C)c4)cc23)nc(N)n1` (stereo not shown) [A76, 4-(1-ethoxy-1-phenylethyl)-6-[5-(1-methyl-1H-pyrazol-4-yl)-1H-pyrrolo-[2,3-b]pyridin-3-yl]pyrimidin-2-ylamine], with 79 nM.
The figure for `COCOC(C)(c1ccccc1)c1cc(-c2c[nH]c3ncc(-c4cnn(CCC(=O)O)c4)cc23)nc(N)n1` (stereo not shown) [A77, 3-(4-{3-[2-amino-6-(1-methoxymethoxy-1-phenylethyl)pyrimidin-4-yl]-1H-pyrrolo[2,3-b]pyridin-5-yl}pyrazol-1-yl)propionic acid] is 43 nM; for `CCOC(=O)CCn1cc(-c2cnc3[nH]cc(-c4cc(C(C)(OCOC)c5ccccc5)nc(N)n4)c3c2)cn1` (stereo not shown) [A78, ethyl 3-(4-{3-[2-amino-6-(1-methoxymethoxy-1-phenylethyl)pyrimidin-4-yl]-1H-pyrrolo[2,3-b]pyridin-5-yl}pyrazol-1-yl)propionate] it is 61 nM; for `C=C(CF)n1cc(-c2cnc3[nH]cc(-c4cc(C(C)(O)c5ccccc5)nc(N)n4)c3c2)cn1` (stereo not shown) [A79, 1-(2-amino-6-{5-[1-(1-fluoromethylvinyl)-1H-pyrazol-4-yl]-1H-pyrrolo[2,3-b]-pyridin-3-yl}pyrimidin-4-yl)-1-phenylethanol] it is 68 nM.
`CC(O)(c1ccccc1)c1cc(-c2c[nH]c3ncc(-c4cnn(C(CF)CF)c4)cc23)nc(N)n1` (stereo not shown) [A80, 1-(2-amino-6-{5-[1-(2-fluoro-1-fluoromethylethyl)-1H-pyrazol-4-yl]-1H-pyrrolo[2,3-b]pyridin-3-yl}pyrimidin-4-yl)-1-phenylethanol]: the IC50 was determined as 17 nM.
Compound `CC(O)(c1ccccc1)c1cc(-c2c[nH]c3ncc(-c4cnn(CCF)c4)cc23)nc(N)n1` (stereo not shown) [A81, 1-(2-amino-6-{5-[1-(2-fluoroethyl)-1H-pyrazol-4-yl]-1H-pyrrolo[2,3-b]pyridin-3-yl}pyrimidin-4-yl)-1-phenylethanol] had an IC50 of 19 nM.
As for `CC(C)C(O)(c1ccccc1)c1cc(-c2c[nH]c3ncc(-c4cnn(C)c4)cc23)nc(N)n1` (stereo not shown) [A82, 1-{2-amino-6-[5-(1-methyl-1H-pyrazol-4-yl)-1H-pyrrolo[2,3-b]pyridin-3-yl]-pyrimidin-4-yl}-2-methyl-1-phenylpropan-1-ol], the midpoint of inhibition, the IC50, lay at 78 nM.
Then `CC(O)(c1ccccc1)c1cc(-c2c[nH]c3ncc(-c4cnn(CC5CC5)c4)cc23)nc(N)n1` (stereo not shown) [A83, 1-{2-amino-6-[5-(1-cyclopropylmethyl-1H-pyrazol-4-yl)-1H-pyrrolo[2,3-b]-pyridin-3-yl]pyrimidin-4-yl}-1-phenylethanol], with 59 nM; and `CC(O)(c1ccccc1)c1cc(-c2c[nH]c3ncc(-c4cnn(CC(F)F)c4)cc23)nc(N)n1` (stereo not shown) [A84, 1-(2-amino-6-{5-[1-(2,2-difluoroethyl)-1H-pyrazol-4-yl]-1H-pyrrolo[2,3-b]-pyridin-3-yl}pyrimidin-4-yl)-1-phenylethanol], with 50 nM; and `Cn1cc(-c2cnc3[nH]cc(-c4cc(C(O)(c5ccccc5)C5CCCC5)nc(N)n4)c3c2)cn1` (stereo not shown) [A85, {2-amino-6-[5-(1-methyl-1H-pyrazol-4-yl)-1H-pyrrolo[2,3-b]pyridin-3-yl]-pyrimidin-4-yl}cyclopentylphenylmethanol], with 52 nM.
Then `CC(O)(c1ccccc1)c1cc(-c2c[nH]c3ncc(Br)cc23)nc(N)n1` (stereo not shown) [A86, 1-[2-amino-6-(5-bromo-1H-pyrrolo[2,3-b]pyridin-3-yl)pyrimidin-4-yl]-1-phenylethanol], with 89 nM.

The IC50 is the midpoint of a concentration-inhibition curve.
